Like-named read-outs stand apart in the source and are kept apart here. One block for each molecule: values may come before it.
Key:
PAXF1657 KO Clone #4 = test: 7-day cellular proliferation assay (CellTiter-Glo), PAXF1657 KO Clone #4; assay type: cell-based
In short: (§1)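 PAXF1657 pancreatic cancer cells (GRK2-overexpressing vs empty vector; CRISPR GRK2 knockout vs non-targeting control) were seeded at 500 cells/well in RPMI1640/10% FBS, then given a 10-point series, 30 μM-0.0002 μM in 0.3% DMSO. Medium and compound were refreshed after 3 days; CellTiter-Glo luminescence was read at day 7.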

GRK2 [1] = target: T1, GRK2 (Homo sapiens, UniProt P25098); test: GRK2 Inhibition Assay (TR-FRET, Example 1); assay type: biochemical
T1 sequence (P25098 1-689): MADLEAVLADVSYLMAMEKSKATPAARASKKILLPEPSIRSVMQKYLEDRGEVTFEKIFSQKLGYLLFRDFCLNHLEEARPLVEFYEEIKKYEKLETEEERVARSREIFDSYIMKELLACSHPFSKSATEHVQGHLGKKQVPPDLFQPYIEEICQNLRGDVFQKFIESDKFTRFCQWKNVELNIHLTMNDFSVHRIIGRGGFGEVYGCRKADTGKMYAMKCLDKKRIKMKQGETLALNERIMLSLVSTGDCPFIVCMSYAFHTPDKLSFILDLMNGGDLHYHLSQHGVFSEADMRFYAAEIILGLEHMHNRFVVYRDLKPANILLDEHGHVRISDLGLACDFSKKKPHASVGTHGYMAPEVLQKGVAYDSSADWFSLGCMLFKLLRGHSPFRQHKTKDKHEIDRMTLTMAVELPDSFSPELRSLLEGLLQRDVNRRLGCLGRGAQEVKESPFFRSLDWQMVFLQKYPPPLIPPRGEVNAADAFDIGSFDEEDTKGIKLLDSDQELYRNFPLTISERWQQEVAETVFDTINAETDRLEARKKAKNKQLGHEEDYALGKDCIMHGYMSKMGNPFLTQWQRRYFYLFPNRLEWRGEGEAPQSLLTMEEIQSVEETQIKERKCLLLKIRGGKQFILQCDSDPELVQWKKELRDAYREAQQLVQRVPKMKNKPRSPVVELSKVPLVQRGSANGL
Protocol: Assay: GRK2 enzyme (1 nM final concentration) was diluted in 25 mM HEPES, 10 mM MgCl2, 2 mM DTT, 0.01% Tween-20, and 1 mM EGTA. Then the GRK2 mixture was added into ProxiPlate-384 white plate and pre-incubated for 30 min with test compounds at room temperature. ATP (7 μM final concentration) and Ulight TopoIIα (50 nM final concentration) were added into the assay plate to initiate the reaction and the mixture was incubated at room temperature for 90 min. Then, Eu anti-TopoIIα (0.12 nM final concentration), BSA (0.01% final concentration), and EDTA (11 mM final concentration) in LANCE assay buffer were added into each well. After 60 min incubation time at room temperature, TR-FRET signal was measured by EnVision plate reader.

PAXF1657 EV = test: 7-day cellular proliferation assay (CellTiter-Glo), PAXF1657 EV; assay type: cell-based
In short: as §1

GRK2 [2] = target: T1, GRK2; test: GRK2 Degradation Assay and Western Blot in PAXF1657 cells; assay type: cell-based; parameters: endogenous in cells; host or cells: PAXF1657
In short: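 PAXF1657 cells grown to 70% confluency, then treated with compounds at 0–10 μM for 6 to 24 h at 37 °C. Lysates in PBS with 1% NP40 run on SDS-PAGE. GRK2 protein detected by western blot with β-actin as loading reference, using ECL chemiluminescence.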

[3] = 168 h, 7-day, read-out: 7-day proliferation assay: IC50 GeoMean (uM) [Cell Line: PAXF1657 KO Clone #4]
[4] = TR-FRET, 7 μM ATP, read-out: Enzymatic GRK2 Assay: IC50 (nM) (Example 1)
[5] = 168 h, 7-day, read-out: 7-day proliferation assay: IC50 GeoMean (uM) [Cell Line: PAXF1657 EV]
[6] = 0.3 uM, PAXF1657 EV, 24 hrs, read-out: % GRK2 degradation at 0.3 uM in PAXF1657 EV (24 hrs)
[7] = 1 uM, PAXF1657 EV, 24 hrs, read-out: % GRK2 degradation at 1 uM in PAXF1657 EV (24 hrs)
[8] = 3 uM, PAXF1657 EV, 24 hrs, read-out: % GRK2 degradation at 3 uM in PAXF1657 EV (24 hrs)
[9] = proliferation, read-out: GeoMean IC50 (uM) PAXF1657 KO Clone #4
[10] = Table 4, Example 1 assay, read-out: Enzymatic GRK2 IC50: Av IC50 GRK2
[11] = proliferation, read-out: GeoMean IC50 (UM) PAXF1657 EV
[12] = Conc 0.3 uM, read-out: Degradation Assay - 3 point: Degradation (%)
[13] = Conc 1 uM, read-out: Degradation Assay - 3 point: Degradation (%)
[14] = Conc 3 uM, read-out: Degradation Assay - 3 point: Degradation (%)

SMILES: Cc1ncsc1-c1ccc(CNC(=O)[C@@H]2C[C@@H](O)CN2C(=O)[C@@H](NC(=O)CCCCCOCCOCCOCCCCCCOc2cccc([C@@H](C)NC(=O)c3cccc(NCc4nnc(-c5ccncn5)n4C)c3)c2)C(C)(C)C)cc1 [Compound D79, (2S,4R)-1-((S)-2-(tert-butyl)-22-(3-((R)-1-(3-(((4-methyl-5-(pyrimidin-4-yl)-4H-1,2,4-triazol-3-yl)methyl)amino)benzamido)ethyl)phenoxy)-4-oxo-10,13,16-trioxa-3-azadocosan-1-oyl)-4-hydroxy-N-(4-(4-methylthiazol-5-yl)benzyl)pyrrolidine-2-carboxamide]
- IC50 (PAXF1657 KO Clone #4; [3]): > 10 µM
- IC50 (GRK2 [1]; [4]): < 100 nM
- IC50 (PAXF1657 EV; [5]): < 1 µM
- inhibition at 0.3 µM (GRK2 [2]; [6]): 52%
- inhibition at 1 µM (GRK2 [2]; [7]): 54%
- inhibition at 3 µM (GRK2 [2]; [8]): 8%

SMILES: Cc1ncsc1-c1ccc(CNC(=O)[C@@H]2C[C@@H](O)CN2C(=O)[C@@H](NC(=O)CCCCc2cn(CCCCCOc3cccc(CNC(=O)c4cccc(NCc5nnc(-c6ccncn6)n5C)c4)c3)nn2)C(C)(C)C)cc1 [Compound D80]
- IC50 (PAXF1657 KO Clone #4; [3]): > 10 µM
- IC50 (GRK2 [1]; [4]): < 100 nM
- IC50 (PAXF1657 EV; [5]): > 10 µM
- inhibition at 0.3 µM (GRK2 [2]; [6]): 6%
- inhibition at 1 µM (GRK2 [2]; [7]): 0%
- inhibition at 3 µM (GRK2 [2]; [8]): 23%

SMILES: Cc1ncsc1-c1ccc(CNC(=O)[C@@H]2C[C@@H](O)CN2C(=O)[C@@H](NC(=O)CCCc2cn(CCCCCCOc3cccc(CNC(=O)c4cccc(NCc5nnc(-c6ccncn6)n5C)c4)c3)nn2)C(C)(C)C)cc1 [Compound D86]
- IC50 (PAXF1657 KO Clone #4; [3]): > 10 µM
- IC50 (GRK2 [1]; [4]): < 100 nM
- IC50 (PAXF1657 EV; [5]): > 10 µM
- inhibition at 1 µM (GRK2 [2]; [7]): 16%
- inhibition at 3 µM (GRK2 [2]; [8]): 24%

SMILES: Cc1ncsc1-c1ccc(CNC(=O)[C@@H]2C[C@@H](O)CN2C(=O)[C@@H](NC(=O)CCCCCOCCOCCOCCCCCCOc2ccc(CNC(=O)c3cccc(NCc4nnc(-c5ccncn5)n4C)c3)cc2)C(C)(C)C)cc1 [Compound D87]
- IC50 (PAXF1657 KO Clone #4; [3]): > 10 µM
- IC50 (GRK2 [1]; [4]): < 100 nM
- IC50 (PAXF1657 EV; [5]): 1 to 10 µM
- inhibition at 1 µM (GRK2 [2]; [7]): 23%
- inhibition at 3 µM (GRK2 [2]; [8]): 18%

SMILES: Cc1ncsc1-c1ccc([C@H](C)NC(=O)[C@@H]2C[C@@H](O)CN2C(=O)[C@@H](NC(=O)CCCCCOCCOCCOCCCCCCOc2cccc(CNC(=O)c3cccc(NCc4nnc(-c5ccncn5)n4C)c3)c2)C(C)(C)C)cc1 [Compound D90]
- IC50 (PAXF1657 KO Clone #4; [3]): > 10 µM
- IC50 (GRK2 [1]; [4]): < 100 nM
- IC50 (PAXF1657 EV; [5]): 1 to 10 µM
- inhibition at 1 µM (GRK2 [2]; [7]): 23%
- inhibition at 3 µM (GRK2 [2]; [8]): 20%

Continued, in another order:

- IC50 (GRK2 [1]; [4]): < 100 nM
- % GRK2 degradation at 0.03 uM in PAXF1657 EV (24 hrs) (GRK2 [2]; 0.03 uM, PAXF1657 EV, 24 hrs): 37%
- % GRK2 degradation at 0.1 uM in PAXF1657 EV (24 hrs) (GRK2 [2]; 0.1 uM, PAXF1657 EV, 24 hrs): 28%
- inhibition at 0.3 µM (GRK2 [2]; [6]): 42%
- inhibition at 1 µM (GRK2 [2]; [7]): 51%
- inhibition at 3 µM (GRK2 [2]; [8]): 16%
- % GRK2 degradation at 10 uM in PAXF1657 EV (24 hrs) (GRK2 [2]; 10 uM, PAXF1657 EV, 24 hrs): −4%
SMILES: Cc1ncsc1-c1ccc(CNC(=O)[C@@H]2C[C@@H](O)CN2C(=O)[C@@H](NC(=O)CCCCCOCCOCCOCCCCCCOc2cccc(C(C)NC(=O)c3cccc(NCc4nnc(-c5ccncn5)n4C)c3)c2)C(C)(C)C)cc1 (stereo partly drawn) [Compound D91, (2S,4R)-1-((2S)-2-(tert-butyl)-22-(3-(1-(3-(((4-methyl-5-(pyrimidin-4-yl)-4H-1,2,4-triazol-3-yl)methyl)amino)benzamido)ethyl)phenoxy)-4-oxo-10,13,16-trioxa-3-azadocosan-1-oyl)-4-hydroxy-N-(4-(4-methylthiazol-5-yl)benzyl)pyrrolidine-2-carboxamide]
- IC50 (PAXF1657 KO Clone #4; [3]): 1 to 10 µM
- IC50 (PAXF1657 EV; [5]): < 1 µM

- IC50 (GRK2 [1]; [4]): < 100 nM
- inhibition at 0.3 µM (GRK2 [2]; [6]): 34%
- inhibition at 1 µM (GRK2 [2]; [7]): 12%
- inhibition at 3 µM (GRK2 [2]; [8]): 5%
SMILES: Cc1ncsc1-c1ccc(CNC(=O)[C@@H]2C[C@@H](O)CN2C(=O)[C@@H](NC(=O)CCCCCOCCOCCOCCCCCCOc2ccc(C(F)(F)F)c(CNC(=O)c3cccc(NCc4nnc(-c5ccncn5)n4C)c3)c2)C(C)(C)C)cc1 [Compound D92, (2S,4R)-1-((S)-2-(tert-butyl)-22-(3-((3-(((4-methyl-5-(pyrimidin-4-yl)-4H-1,2,4-triazol-3-yl)methyl)amino)benzamido)methyl)-4-(trifluoromethyl)phenoxy)-4-oxo-10,13,16-trioxa-3-azadocosan-1-oyl)-4-hydroxy-N-(4-(4-methylthiazol-5-yl)benzyl)pyrrolidine-2-carboxamide]
- IC50 (PAXF1657 KO Clone #4; [3]): > 10 µM
- IC50 (PAXF1657 EV; [5]): < 1 µM

- IC50 (GRK2 [1]; [4]): < 100 nM
- inhibition at 1 µM (GRK2 [2]; [7]): 70%
- inhibition at 3 µM (GRK2 [2]; [8]): 73%
SMILES: CN[C@@H](C)C(=O)N[C@H](C(=O)N1CCC[C@H]1c1nc(C(=O)c2cccc(OCc3cn(CCCCCCOc4cccc(CNC(=O)c5cccc(NCc6nnc(-c7ccncn7)n6C)c5)c4)nn3)c2)cs1)C1CCCCC1 [Compound D102, N-(3-((6-(4-((3-(2-((S)-1-((S)-2-cyclohexyl-2-((S)-2-(methylamino)propanamido)acetyl)pyrrolidin-2-yl)thiazole-4-carbonyl)phenoxy)methyl)-1H-1,2,3-triazol-1-yl)hexyl)oxy)benzyl)-3-(((4-methyl-5-(pyrimidin-4-yl)-4H-1,2,4-triazol-3-yl)methyl)amino)benzamide]
- IC50 (PAXF1657 KO Clone #4; [3]): 1 to 10 µM
- IC50 (PAXF1657 EV; [5]): < 1 µM

- IC50 (GRK2 [1]; [10]): 8.71 nM
- inhibition at 0.3 µM (GRK2 [2]; [12]): 87%
- inhibition at 1 µM (GRK2 [2]; [13]): 86%
- inhibition at 3 µM (GRK2 [2]; [14]): 85%
SMILES: CN[C@@H](C)C(=O)N[C@H](C(=O)N1CCC[C@H]1c1nc(C(=O)c2cccc(OCc3cn(CCCCCCOc4cccc([C@@H](C)NC(=O)c5cccc(NCc6nnc(-c7ccncn7)n6C)c5)c4)nn3)c2)cs1)C1CCCCC1 [Compound D105]
- IC50 (PAXF1657 KO Clone #4; [9]): 3.72 µM
- IC50 (PAXF1657 EV; [11]): 0.11 µM

- IC50 (GRK2 [1]; [10]): 54.9 nM
- inhibition at 0.3 µM (GRK2 [2]; [12]): 26.1%
- inhibition at 1 µM (GRK2 [2]; [13]): 45.9%
- inhibition at 3 µM (GRK2 [2]; [14]): 66.6%
SMILES: Cc1ncsc1-c1ccc(CNC(=O)[C@@H]2C[C@@H](O)CN2C(=O)[C@@H](NC(=O)CCCCOCCOCCOCCCCCCOc2cccc(CNC(=O)c3cccc(NCc4nnc(-c5ccncn5)n4C)c3)c2)C(C)(C)C)cc1 [Compound D109, (2S,4R)-1-((S)-2-(tert-butyl)-21-(3-((3-(((4-methyl-5-(pyrimidin-4-yl)-4H-1,2,4-triazol-3-yl)methyl)amino)benzamido)methyl)phenoxy)-4-oxo-9,12,15-trioxa-3-azahenicosan-1-oyl)-4-hydroxy-N-(4-(4-methylthiazol-5-yl)benzyl)pyrrolidine-2-carboxamide]
- IC50 (PAXF1657 KO Clone #4; [9]): 5.17 µM
- IC50 (PAXF1657 EV; [11]): 0.68 µM

- IC50 (GRK2 [1]; [10]): 6.6 nM
- inhibition at 0.3 µM (GRK2 [2]; [12]): 15%
- inhibition at 1 µM (GRK2 [2]; [13]): 30%
- inhibition at 3 µM (GRK2 [2]; [14]): -40%
SMILES: Cc1ncsc1-c1ccc(CNC(=O)[C@@H]2C[C@@H](O)CN2C(=O)[C@@H](NC(=O)CCCOCCOCCOCCCCCCOc2ccc([C@@H](C)NC(=O)c3cccc(NCc4nnc(-c5ccncn5)n4C)c3)cc2)C(C)(C)C)cc1 [Compound D116]
- IC50 (PAXF1657 KO Clone #4; [9]): 7.48 µM
- IC50 (PAXF1657 EV; [11]): 1.88 µM

Source: patent publication US20240174637A1, “DEGRADERS OF GRK2 AND USES THEREOF” (Sonata Therapeutics, Inc., priority 2021, published 2024)
